Test results published in ChEMBL document CHEMBL1201862, “PubChem BioAssay data set” (2004).
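Cultured in 96-well plates, cells were exposed to test compound for 48 hours across five concentrations. Here, GI50 denotes the concentration required for 50% inhibition of growth.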 Active and inactive are the calls of the source. Cut-off read from the data, not from the text of the source: active = GI50 up to about 1.1 µM and inactive = higher.

What was measured:
Assay in all cases: NCI anticancer screen, dose series, 48 h
SF-539 = test system: SF-539
SN12C = test system: SN12C
DU-145 = test system: DU-145
CAKI-1 = test system: CAKI-1
OVCAR-3 = test system: OVCAR-3
HL-60 = test system: HL-60
MDA-N = test system: MDA-N
U-251 = test system: U-251
PC-3 = test system: PC-3
786-0 = test system: 786-0
HCT-116 = test system: HCT-116
SK-MEL-2 = test system: SK-MEL-2
SW-620 = test system: SW-620
SR = test system: SR
EKVX = test system: EKVX
SK-OV-3 = test system: SK-OV-3
OVCAR-8 = test system: OVCAR-8
KM12 = test system: KM12
MCF7 = test system: MCF7
SK-MEL-5 = test system: SK-MEL-5
HCT-15 = test system: HCT-15
HOP-92 = test system: HOP-92
MOLT-4 = test system: MOLT-4
SF-295 = test system: SF-295
SNB-75 = test system: SNB-75
NCI-H522 = test system: NCI-H522
NCI/ADR-RES = test system: NCI/ADR-RES
COLO 205 = test system: COLO 205
OVCAR-4 = test system: OVCAR-4
BT-549 = test system: BT-549
TK-10 = test system: TK-10
OVCAR-5 = test system: OVCAR-5
NCI-H23 = test system: NCI-H23
SNB-19 = test system: SNB-19
SF-268 = test system: SF-268
A549 = test system: A549
UACC-257 = test system: UACC-257
A498 = test system: A498
M14 = test system: M14
IGROV-1 = test system: IGROV-1
Hs-578T = test system: Hs-578T
HT-29 = test system: HT-29
RXF 393 = test system: RXF 393
NCI-H460 = test system: NCI-H460
K562 = test system: K562
CCRF-CEM = test system: CCRF-CEM
MDA-MB-435 = test system: MDA-MB-435
UACC-62 = test system: UACC-62
MDA-MB-231 = test system: MDA-MB-231
LOX IMVI = test system: LOX IMVI
Malme-3M = test system: Malme-3M
NCI-H226 = test system: NCI-H226
ACHN = test system: ACHN
T47D = test system: T47D
UO-31 = test system: UO-31
HOP-62 = test system: HOP-62
RPMI-8226 = test system: RPMI-8226
SK-MEL-28 = test system: SK-MEL-28

## CN(C)CCN1C(=O)CC[C@@]2(C)C1=CC[C@@H]1[C@@H]2CC[C@@]2(C)[C@H]1CC[C@]2(C)O
SF-539
  GI50: > 100 µM (inactive)
SN12C
  GI50: > 100 µM (inactive)
DU-145
  GI50: > 100 µM (inactive)
CAKI-1
  GI50: > 100 µM (inactive)
OVCAR-3
  GI50: > 100 µM (inactive)
HL-60
  GI50: > 100 µM (inactive)
MDA-N
  GI50: > 100 µM (inactive)
U-251
  GI50: > 100 µM (inactive)
PC-3
  GI50: > 100 µM (inactive)
786-0
  GI50: > 100 µM (inactive)
HCT-116
  GI50: 71.6 µM (inactive)
SK-MEL-2
  GI50: > 100 µM (inactive)
SW-620
  GI50: > 100 µM (inactive)
SR
  GI50: > 100 µM (inactive)
EKVX
  GI50: > 100 µM (inactive)
SK-OV-3
  GI50: > 100 µM (inactive)
OVCAR-8
  GI50: > 100 µM (inactive)
KM12
  GI50: > 100 µM (inactive)
MCF7
  GI50: > 100 µM (inactive)
SK-MEL-5
  GI50: > 100 µM (inactive)
HCT-15
  GI50: > 100 µM
HOP-92
  GI50: > 100 µM (inactive)
MOLT-4
  GI50: > 100 µM (inactive)
SF-295
  GI50: > 100 µM (inactive)
SNB-75
  GI50: > 100 µM (inactive)
NCI-H522
  GI50: > 100 µM (inactive)
NCI/ADR-RES
  GI50: > 100 µM (inactive)
COLO 205
  GI50: > 100 µM (inactive)
OVCAR-4
  GI50: > 100 µM (inactive)
BT-549
  GI50: > 100 µM (inactive)
TK-10
  GI50: > 100 µM (inactive)
OVCAR-5
  GI50: > 100 µM (inactive)
NCI-H23
  GI50: > 100 µM (inactive)
SNB-19
  GI50: > 100 µM (inactive)
SF-268
  GI50: > 100 µM (inactive)
A549
  GI50: > 100 µM (inactive)
UACC-257
  GI50: > 100 µM (inactive)
A498
  GI50: > 100 µM (inactive)
M14
  GI50: > 100 µM (inactive)
IGROV-1
  GI50: > 100 µM (inactive)
Hs-578T
  GI50: > 100 µM (inactive)
HT-29
  GI50: 39.8 µM (inactive)
RXF 393
  GI50: > 100 µM (inactive)
NCI-H460
  GI50: > 100 µM (inactive)
K562
  GI50: > 100 µM (inactive)
CCRF-CEM
  GI50: > 100 µM (inactive)
MDA-MB-435
  GI50: > 100 µM (inactive)
UACC-62
  GI50: > 100 µM (inactive)
MDA-MB-231
  GI50: > 100 µM (inactive)
LOX IMVI
  GI50: > 100 µM (inactive)
Malme-3M
  GI50: > 100 µM (inactive)
NCI-H226
  GI50: > 100 µM (inactive)
ACHN
  GI50: > 100 µM (inactive)
T47D
  GI50: > 100 µM (inactive)
UO-31
  GI50: > 100 µM (inactive)
HOP-62
  GI50: > 100 µM (inactive)
RPMI-8226
  GI50: > 100 µM (inactive)
SK-MEL-28
  GI50: > 100 µM (inactive)
